Assay [1] has as its target T1, Ephrin type-B receptor 3 (Homo sapiens) (UniProt P54753).
T1 sequence (whole entry): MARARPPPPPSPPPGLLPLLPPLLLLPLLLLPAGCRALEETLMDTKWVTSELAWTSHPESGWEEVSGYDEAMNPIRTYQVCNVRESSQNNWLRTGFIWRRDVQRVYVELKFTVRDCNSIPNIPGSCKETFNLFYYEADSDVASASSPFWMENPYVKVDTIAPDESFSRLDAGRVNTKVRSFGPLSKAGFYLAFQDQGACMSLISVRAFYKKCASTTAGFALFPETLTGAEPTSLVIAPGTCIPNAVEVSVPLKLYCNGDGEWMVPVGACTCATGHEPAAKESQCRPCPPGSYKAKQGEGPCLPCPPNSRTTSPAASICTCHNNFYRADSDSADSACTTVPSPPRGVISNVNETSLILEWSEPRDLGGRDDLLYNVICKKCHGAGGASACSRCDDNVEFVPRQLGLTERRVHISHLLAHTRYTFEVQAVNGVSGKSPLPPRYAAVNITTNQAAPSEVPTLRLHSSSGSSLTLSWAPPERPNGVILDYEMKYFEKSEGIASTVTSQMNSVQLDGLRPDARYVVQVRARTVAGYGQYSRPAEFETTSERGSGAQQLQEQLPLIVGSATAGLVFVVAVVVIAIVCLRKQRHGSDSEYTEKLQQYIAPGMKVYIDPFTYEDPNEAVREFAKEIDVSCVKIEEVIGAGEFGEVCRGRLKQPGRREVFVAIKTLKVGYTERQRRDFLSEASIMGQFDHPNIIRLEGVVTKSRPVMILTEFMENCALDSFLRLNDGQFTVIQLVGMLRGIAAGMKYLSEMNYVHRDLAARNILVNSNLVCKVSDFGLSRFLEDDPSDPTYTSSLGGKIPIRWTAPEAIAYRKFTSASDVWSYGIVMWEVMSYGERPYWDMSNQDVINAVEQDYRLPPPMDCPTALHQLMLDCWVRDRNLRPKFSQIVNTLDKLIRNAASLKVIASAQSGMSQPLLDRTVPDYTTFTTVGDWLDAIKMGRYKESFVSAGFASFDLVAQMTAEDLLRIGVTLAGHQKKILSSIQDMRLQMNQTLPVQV
The experiment in a line: Selectivity interaction (Kinase panel (Z-LYTE Assay)) EUB0001632a EPHB3. The following applies: at 10 µM.

For another assay, the target named is Focal adhesion kinase 1 (Homo sapiens, UniProt Q05397). Kind of assay: Selectivity interaction (KinomeScan (DiscoverX)) EUB0001619a PTK2. The following applies: at 1 µM.
For assay [2], the target named is T2, Dual specificity protein kinase TTK (Homo sapiens) (UniProt P33981).
T2 sequence (whole entry): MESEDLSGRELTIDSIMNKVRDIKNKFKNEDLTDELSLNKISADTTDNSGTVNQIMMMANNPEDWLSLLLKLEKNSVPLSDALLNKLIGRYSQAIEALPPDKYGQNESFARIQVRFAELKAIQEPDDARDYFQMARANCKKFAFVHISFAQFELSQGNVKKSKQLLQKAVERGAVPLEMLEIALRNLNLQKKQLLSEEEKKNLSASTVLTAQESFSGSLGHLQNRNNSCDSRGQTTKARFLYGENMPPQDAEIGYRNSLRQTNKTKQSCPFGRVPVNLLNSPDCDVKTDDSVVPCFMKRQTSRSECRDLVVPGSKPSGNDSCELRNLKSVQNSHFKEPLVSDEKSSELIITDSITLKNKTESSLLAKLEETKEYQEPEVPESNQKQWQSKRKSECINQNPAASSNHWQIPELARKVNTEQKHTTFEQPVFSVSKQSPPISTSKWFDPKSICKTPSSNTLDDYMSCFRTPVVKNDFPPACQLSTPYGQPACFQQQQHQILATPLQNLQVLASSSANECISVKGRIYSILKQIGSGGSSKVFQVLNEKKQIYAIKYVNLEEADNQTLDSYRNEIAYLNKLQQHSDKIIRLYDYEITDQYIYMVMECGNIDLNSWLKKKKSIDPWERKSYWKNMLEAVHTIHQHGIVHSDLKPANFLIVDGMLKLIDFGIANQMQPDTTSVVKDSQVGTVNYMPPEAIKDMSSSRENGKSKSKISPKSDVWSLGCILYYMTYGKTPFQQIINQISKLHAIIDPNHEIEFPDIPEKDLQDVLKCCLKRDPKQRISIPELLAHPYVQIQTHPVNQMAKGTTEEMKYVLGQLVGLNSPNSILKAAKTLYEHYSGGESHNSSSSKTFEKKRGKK
The experiment in a line: Selectivity interaction (KinomeScan (DiscoverX)) EUB0000092b TTK. The following applies: at 10 µM.

Assay [3] deals with T3, Serine/threonine-protein kinase LATS1 (Homo sapiens) (UniProt O95835).
T3 sequence (whole entry): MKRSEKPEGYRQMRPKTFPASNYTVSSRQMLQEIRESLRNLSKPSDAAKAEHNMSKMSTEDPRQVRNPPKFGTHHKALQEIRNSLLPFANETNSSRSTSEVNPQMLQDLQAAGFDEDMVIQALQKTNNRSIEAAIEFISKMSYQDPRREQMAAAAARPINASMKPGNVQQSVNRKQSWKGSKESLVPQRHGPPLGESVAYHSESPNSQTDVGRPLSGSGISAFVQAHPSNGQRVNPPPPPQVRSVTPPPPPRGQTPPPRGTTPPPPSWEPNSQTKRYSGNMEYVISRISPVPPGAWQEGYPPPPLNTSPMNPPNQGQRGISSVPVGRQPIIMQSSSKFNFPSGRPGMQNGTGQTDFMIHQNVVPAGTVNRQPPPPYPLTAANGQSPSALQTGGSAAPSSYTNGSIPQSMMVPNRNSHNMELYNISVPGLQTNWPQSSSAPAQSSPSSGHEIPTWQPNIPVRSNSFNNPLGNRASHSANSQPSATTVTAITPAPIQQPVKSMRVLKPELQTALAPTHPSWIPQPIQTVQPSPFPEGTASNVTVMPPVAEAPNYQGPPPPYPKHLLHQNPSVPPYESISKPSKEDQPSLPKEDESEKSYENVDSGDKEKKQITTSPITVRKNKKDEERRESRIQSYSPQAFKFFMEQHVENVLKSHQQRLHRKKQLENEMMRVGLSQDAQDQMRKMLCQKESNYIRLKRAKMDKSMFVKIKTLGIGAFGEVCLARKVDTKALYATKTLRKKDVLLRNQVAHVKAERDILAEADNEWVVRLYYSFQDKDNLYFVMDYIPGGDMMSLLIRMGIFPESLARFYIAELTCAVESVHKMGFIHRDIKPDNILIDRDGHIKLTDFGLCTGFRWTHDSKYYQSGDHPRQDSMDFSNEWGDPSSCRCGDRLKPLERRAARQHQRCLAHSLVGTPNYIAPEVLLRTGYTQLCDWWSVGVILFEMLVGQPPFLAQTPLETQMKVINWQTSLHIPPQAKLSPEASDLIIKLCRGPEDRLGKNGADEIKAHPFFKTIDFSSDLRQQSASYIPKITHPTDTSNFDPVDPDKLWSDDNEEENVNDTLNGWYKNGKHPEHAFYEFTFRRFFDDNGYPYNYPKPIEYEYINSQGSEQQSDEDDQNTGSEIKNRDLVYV
The experiment in a line: Selectivity interaction (KinomeScan (DiscoverX)) EUB0000618a LATS1. The following applies: at 10 µM.

We go through four molecules from ChEMBL document CHEMBL5465560, “Selectivity Literature for EUbOPEN Chemogenomic Library” (2024).

SMILES strings stand for the structures.

Focal adhesion kinase 1, sequence (Q05397 2-1052 limits assumed): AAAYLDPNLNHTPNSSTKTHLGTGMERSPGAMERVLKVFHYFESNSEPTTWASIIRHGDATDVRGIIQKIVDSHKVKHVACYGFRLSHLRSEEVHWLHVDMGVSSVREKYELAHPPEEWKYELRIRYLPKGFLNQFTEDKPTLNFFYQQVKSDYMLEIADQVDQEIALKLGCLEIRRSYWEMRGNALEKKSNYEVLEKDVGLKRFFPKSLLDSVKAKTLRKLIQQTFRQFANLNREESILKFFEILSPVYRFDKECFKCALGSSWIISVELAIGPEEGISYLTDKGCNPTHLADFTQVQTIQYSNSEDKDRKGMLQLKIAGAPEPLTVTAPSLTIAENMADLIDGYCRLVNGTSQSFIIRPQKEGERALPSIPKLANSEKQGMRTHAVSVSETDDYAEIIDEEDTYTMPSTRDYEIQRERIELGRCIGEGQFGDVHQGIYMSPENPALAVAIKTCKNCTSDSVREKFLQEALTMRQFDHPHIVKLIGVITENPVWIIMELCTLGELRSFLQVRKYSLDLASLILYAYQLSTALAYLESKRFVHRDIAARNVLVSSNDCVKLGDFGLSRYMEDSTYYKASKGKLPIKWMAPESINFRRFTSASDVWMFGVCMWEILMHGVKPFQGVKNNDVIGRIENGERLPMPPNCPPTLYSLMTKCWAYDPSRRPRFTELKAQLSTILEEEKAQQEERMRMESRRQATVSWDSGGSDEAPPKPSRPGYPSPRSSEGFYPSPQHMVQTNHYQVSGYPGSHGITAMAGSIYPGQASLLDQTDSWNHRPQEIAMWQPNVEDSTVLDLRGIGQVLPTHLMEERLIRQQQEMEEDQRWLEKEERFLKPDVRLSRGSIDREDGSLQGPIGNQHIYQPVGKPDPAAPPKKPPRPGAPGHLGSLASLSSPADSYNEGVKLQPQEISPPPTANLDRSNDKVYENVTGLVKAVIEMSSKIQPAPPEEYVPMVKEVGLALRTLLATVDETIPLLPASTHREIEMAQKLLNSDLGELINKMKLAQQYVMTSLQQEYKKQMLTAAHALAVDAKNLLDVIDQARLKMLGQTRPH

In turn, `Cn1cc(-n2cnc3c(NCc4nc5cc(Cl)c(Cl)cc5[nH]4)nc(N4CCOCC4)nc32)cn1` displayed a % of control in assay [1] of 2.4%.

As to `N#Cc1cccc(-c2c[nH]c3ncnc(N4CCOCC4)c23)c1`, at Focal adhesion kinase 1, the % of control came to 100%.

In turn, `CCC(=O)N1CCN(c2ccc(-n3c(=O)ccc4cnc5ccc(-c6cnc7ccccc7c6)cc5c43)cc2C(F)(F)F)CC1` registered a % of control in assay [2] of 9.6%.

`O[C@H]1CC[C@H](Nc2ncc3nc(Nc4c(F)cc(F)cc4F)n([C@H]4CCOC4)c3n2)CC1`: the % of control in assay [3] came to 100%.
